% of control, % of inhibition and activity data for 10 compounds are collected here from ChEMBL document CHEMBL5465560, “Selectivity Literature for EUbOPEN Chemogenomic Library” (2024).

In data set [1] the target is T1, Serine/threonine-protein kinase D2 (Homo sapiens) (UniProt Q9BZL6).
T1 sequence (whole entry): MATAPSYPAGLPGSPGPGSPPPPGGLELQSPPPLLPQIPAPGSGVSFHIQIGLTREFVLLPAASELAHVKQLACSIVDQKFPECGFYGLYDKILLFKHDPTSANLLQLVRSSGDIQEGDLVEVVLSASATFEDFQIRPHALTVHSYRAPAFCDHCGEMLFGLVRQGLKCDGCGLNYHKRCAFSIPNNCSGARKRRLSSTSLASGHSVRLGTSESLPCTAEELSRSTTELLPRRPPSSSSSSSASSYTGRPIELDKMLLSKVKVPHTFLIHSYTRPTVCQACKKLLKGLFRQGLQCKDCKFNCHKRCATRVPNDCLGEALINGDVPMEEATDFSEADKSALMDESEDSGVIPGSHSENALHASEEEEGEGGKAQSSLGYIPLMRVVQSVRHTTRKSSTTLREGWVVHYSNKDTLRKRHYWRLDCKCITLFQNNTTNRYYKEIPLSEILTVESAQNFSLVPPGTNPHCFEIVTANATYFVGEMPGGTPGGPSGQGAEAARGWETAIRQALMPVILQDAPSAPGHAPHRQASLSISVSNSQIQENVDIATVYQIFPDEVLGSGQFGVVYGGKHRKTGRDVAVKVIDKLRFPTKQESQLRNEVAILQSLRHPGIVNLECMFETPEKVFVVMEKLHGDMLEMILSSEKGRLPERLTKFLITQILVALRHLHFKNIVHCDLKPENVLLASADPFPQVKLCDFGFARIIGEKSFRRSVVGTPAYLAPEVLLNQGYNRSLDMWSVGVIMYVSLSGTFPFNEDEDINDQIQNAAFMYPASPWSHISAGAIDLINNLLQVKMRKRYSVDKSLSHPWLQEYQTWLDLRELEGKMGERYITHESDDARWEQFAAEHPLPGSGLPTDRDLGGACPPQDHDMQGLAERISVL
Briefly: Selectivity interaction (Ambit KINOMEscan and KiNATiv profiling in Jurkat cells) EUB0000090b PRKD2. In kind it is cell-based. The note with it: at 1 µM.

The target in data set [2] is cAMP-dependent protein kinase catalytic subunit beta (Homo sapiens) (UniProt P22694). Briefly: Selectivity interaction (KinomeScan (DiscoverX)) EUB0000607a PRKACB. The note with it: at 10 µM.
Data set [3] deals with Insulin receptor (Homo sapiens, UniProt P06213). Briefly: Selectivity interaction (KinomeScan (DiscoverX)) EUB0001079a INSR. The note with it: at 1 µM.
Data set [4] addresses T2, Cyclin-dependent kinase 11A (Homo sapiens) (UniProt Q9UQ88).
T2 sequence (whole entry): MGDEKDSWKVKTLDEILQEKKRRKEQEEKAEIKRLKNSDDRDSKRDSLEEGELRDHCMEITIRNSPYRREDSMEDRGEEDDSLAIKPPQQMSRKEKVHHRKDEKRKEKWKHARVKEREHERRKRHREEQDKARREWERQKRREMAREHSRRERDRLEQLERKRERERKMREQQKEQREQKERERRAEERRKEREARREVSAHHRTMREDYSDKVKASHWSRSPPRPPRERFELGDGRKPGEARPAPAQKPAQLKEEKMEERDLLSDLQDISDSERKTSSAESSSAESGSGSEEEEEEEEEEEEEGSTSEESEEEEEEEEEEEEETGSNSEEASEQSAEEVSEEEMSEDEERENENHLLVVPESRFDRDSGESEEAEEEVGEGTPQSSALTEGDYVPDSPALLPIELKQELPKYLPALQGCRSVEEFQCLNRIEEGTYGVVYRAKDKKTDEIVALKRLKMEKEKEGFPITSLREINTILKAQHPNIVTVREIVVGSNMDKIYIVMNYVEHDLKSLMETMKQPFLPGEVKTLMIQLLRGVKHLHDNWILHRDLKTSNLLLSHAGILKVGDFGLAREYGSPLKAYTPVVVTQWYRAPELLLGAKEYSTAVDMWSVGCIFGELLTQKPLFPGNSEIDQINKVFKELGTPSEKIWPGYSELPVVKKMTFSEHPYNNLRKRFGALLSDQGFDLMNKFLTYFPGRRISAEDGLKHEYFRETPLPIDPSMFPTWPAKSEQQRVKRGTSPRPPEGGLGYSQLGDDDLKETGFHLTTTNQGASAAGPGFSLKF
The experiment in a line: Selectivity interaction (ActivX KiNativ screen (kinase selectivity in THP-1 cell lysates)) EUB0000639a CDK11A. Format: subcellular. The note with it: lysate.

In data set [5] the target is Mitogen-activated protein kinase 7 (Homo sapiens) (UniProt Q13164). The experiment in a line: Selectivity interaction (KinomeScan (DiscoverX)) EUB0001049a MAPK7. The note with it: at 1 µM.
Data set [6] deals with hERG (KCNH2) (Homo sapiens, UniProt Q12809). Briefly: Selectivity interaction (Eurofins CEREP Diversity Profile (receptors and ion channels)) EUB0000279b KCNH2. The note with it: at 10 µM, read-out: % of control.
Data set [7] deals with MAP kinase-interacting serine/threonine-protein kinase 1 (Homo sapiens) (UniProt Q9BUB5). Briefly: Selectivity interaction (KinomeScan (DiscoverX)) EUB0000045b MKNK1.
The target in data set [8] is cAMP-dependent protein kinase catalytic subunit beta (Homo sapiens) (UniProt P22694). The experiment in a line: Selectivity interaction (KinomeScan (DiscoverX)) EUB0000618a PRKACB. The note with it: at 10 µM.
Data set [9] has as its target Tyrosine-protein kinase Fgr (Homo sapiens) (UniProt P09769). The experiment in a line: Selectivity interaction (Upstate Kinase Profiler service (Millipore)) EUB0000056c FGR. The note with it: at 1 µM.
The target in data set [10] is Vascular endothelial growth factor receptor 2 (Homo sapiens, UniProt P35968). The experiment in a line: Selectivity interaction (KinomeScan (DiscoverX)) EUB0000595a KDR. The note with it: at 10 µM.
Data set [11] deals with Mitogen-activated protein kinase kinase kinase kinase 5 (Homo sapiens) (UniProt Q9Y4K4). The note with it: at 10 µM.
The subject of data set [12] is Phosphatidylinositol 4,5-bisphosphate 3-kinase catalytic subunit alpha isoform (Homo sapiens), P42336 [E545K]. The note with it: at 10 µM.

Chain of MAP kinase-interacting serine/threonine-protein kinase 1 (Homo sapiens) (Q9BUB5 whole entry, looked up): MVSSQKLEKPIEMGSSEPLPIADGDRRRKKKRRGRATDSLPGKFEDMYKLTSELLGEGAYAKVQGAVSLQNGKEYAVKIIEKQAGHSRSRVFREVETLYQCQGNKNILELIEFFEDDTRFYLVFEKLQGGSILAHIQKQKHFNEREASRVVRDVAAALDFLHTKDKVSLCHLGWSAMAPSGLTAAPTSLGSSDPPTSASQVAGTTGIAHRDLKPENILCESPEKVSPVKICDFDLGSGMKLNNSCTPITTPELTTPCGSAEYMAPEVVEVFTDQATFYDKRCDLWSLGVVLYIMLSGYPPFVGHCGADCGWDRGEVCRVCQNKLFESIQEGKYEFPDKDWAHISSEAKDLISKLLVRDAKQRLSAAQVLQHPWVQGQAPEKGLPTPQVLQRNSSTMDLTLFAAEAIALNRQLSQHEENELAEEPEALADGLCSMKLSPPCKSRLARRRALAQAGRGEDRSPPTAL
Chain of Phosphatidylinositol 4,5-bisphosphate 3-kinase catalytic subunit alpha isoform (Homo sapiens), P42336 [E545K] (P42336 whole entry E545K, canonical isoform): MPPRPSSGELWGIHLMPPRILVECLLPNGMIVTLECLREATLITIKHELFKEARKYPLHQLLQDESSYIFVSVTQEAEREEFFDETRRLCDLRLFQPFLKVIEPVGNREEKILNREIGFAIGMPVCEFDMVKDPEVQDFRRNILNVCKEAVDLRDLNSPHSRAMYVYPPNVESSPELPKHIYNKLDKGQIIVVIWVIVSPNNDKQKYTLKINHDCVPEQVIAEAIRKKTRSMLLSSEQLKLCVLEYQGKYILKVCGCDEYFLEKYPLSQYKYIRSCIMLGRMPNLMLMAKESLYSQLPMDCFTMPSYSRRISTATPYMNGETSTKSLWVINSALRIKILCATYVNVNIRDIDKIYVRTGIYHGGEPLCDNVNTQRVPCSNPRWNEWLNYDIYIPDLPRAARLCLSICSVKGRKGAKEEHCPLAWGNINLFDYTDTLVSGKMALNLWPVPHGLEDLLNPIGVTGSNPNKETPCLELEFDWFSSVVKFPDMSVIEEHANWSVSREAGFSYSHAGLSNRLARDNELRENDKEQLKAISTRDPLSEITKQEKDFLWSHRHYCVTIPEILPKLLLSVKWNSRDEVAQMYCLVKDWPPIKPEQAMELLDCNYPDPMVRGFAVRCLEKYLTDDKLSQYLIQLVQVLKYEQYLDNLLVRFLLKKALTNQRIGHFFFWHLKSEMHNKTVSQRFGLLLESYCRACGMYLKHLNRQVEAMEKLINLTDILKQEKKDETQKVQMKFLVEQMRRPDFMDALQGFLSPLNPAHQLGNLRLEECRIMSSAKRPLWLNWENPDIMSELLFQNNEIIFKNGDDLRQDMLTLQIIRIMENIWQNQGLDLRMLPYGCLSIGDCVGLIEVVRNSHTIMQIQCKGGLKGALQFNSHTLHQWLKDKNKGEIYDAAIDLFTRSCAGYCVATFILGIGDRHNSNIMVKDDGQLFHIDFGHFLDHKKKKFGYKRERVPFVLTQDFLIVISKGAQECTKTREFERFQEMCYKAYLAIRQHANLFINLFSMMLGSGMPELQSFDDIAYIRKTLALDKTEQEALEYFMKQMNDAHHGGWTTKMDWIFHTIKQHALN
Chain of Tyrosine-protein kinase Fgr (Homo sapiens) (P09769 2-529 limits assumed): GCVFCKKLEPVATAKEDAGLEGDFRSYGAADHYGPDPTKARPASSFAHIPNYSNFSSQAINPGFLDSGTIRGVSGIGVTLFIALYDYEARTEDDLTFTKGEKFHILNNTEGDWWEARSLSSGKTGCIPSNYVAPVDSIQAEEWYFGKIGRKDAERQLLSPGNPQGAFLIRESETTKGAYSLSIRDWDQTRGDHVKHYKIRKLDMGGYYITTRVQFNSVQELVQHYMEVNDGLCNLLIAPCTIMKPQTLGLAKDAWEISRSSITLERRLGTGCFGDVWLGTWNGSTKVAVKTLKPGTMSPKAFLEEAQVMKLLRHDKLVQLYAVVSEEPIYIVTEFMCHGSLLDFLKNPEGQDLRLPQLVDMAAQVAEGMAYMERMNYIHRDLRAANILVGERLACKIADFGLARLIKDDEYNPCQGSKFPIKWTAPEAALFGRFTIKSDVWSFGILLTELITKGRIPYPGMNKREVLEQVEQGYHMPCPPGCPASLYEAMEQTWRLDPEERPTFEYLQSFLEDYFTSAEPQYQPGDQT
Chain of Vascular endothelial growth factor receptor 2 (P35968 whole entry): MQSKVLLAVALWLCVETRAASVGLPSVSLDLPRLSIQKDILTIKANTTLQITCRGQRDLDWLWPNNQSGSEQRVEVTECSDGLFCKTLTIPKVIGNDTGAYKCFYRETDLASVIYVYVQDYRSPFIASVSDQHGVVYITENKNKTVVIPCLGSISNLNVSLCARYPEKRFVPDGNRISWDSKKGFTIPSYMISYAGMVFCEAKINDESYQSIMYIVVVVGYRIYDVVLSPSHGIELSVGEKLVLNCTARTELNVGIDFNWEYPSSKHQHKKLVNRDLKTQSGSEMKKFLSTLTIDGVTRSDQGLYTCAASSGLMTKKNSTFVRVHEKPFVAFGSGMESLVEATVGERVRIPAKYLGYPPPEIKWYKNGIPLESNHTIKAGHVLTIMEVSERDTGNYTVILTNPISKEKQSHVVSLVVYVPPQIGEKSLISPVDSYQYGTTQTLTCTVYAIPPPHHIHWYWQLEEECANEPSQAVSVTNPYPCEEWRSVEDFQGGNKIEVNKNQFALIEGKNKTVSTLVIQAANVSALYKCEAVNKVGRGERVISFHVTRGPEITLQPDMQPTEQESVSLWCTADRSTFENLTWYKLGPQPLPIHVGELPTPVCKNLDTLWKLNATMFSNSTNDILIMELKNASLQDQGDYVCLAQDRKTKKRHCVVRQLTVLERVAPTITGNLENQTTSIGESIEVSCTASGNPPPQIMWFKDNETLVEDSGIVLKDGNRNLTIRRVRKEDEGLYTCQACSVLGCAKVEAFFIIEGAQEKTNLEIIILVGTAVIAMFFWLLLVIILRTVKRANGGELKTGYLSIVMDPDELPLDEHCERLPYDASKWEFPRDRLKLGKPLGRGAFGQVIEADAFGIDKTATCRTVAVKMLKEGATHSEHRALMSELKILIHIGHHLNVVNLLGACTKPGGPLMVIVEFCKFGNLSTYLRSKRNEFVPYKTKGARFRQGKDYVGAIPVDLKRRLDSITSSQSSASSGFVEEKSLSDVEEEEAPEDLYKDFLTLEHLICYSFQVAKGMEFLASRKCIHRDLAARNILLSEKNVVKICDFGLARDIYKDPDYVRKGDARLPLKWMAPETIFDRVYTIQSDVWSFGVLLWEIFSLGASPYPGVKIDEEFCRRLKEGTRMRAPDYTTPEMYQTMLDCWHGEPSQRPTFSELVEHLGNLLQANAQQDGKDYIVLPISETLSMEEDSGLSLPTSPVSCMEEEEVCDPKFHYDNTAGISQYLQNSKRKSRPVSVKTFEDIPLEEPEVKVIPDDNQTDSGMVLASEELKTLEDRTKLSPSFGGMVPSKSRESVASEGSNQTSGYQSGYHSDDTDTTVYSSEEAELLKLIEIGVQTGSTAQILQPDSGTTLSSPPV
Chain of Mitogen-activated protein kinase kinase kinase kinase 5 (Homo sapiens) (Q9Y4K4 whole entry, looked up, canonical isoform): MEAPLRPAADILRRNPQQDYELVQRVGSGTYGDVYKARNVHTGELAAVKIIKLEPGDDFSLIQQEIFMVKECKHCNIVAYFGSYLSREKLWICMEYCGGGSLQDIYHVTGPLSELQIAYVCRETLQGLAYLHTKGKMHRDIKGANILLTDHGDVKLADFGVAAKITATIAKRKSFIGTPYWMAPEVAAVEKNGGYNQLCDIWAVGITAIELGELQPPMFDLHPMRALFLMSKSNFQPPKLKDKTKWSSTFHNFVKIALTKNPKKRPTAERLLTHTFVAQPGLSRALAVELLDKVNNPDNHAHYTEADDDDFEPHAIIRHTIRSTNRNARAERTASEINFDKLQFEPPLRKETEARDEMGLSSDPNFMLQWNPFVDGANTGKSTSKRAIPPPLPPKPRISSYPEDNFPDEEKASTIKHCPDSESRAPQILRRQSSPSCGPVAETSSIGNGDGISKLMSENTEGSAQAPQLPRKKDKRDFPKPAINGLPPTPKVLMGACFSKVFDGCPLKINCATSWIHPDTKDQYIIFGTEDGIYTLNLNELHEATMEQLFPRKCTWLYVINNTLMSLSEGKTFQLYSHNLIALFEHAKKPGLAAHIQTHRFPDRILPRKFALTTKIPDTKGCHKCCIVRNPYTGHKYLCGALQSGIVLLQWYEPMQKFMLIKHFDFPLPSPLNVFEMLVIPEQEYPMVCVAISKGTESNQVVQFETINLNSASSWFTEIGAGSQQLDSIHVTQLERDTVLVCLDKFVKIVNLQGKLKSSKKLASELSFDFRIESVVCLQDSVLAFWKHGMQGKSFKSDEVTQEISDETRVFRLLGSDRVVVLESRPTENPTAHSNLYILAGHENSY
Chain of Mitogen-activated protein kinase 7 (Homo sapiens) (Q13164 2-816 limits assumed): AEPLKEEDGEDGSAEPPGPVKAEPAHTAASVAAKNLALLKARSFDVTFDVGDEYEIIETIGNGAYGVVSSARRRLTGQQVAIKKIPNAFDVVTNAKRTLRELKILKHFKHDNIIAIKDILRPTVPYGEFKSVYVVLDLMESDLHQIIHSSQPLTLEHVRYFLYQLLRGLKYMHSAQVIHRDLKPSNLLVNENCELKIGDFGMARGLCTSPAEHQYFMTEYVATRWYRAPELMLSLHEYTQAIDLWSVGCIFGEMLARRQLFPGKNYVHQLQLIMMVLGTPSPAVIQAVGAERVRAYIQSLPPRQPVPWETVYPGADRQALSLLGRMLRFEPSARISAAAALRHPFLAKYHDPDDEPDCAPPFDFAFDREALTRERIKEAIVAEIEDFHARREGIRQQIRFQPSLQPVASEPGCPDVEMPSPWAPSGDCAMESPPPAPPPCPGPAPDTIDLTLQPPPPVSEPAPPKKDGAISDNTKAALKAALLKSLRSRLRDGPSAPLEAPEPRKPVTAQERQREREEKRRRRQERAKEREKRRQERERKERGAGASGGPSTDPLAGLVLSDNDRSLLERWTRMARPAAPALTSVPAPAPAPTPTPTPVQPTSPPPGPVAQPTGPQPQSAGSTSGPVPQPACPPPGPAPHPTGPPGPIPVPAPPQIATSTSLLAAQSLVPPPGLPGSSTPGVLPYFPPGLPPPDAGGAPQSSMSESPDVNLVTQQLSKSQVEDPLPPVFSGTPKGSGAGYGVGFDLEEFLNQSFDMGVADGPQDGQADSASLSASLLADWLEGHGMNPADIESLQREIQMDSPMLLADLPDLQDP

In [1], `CN(C)C/C=C/C(=O)Nc1ccc(C(=O)N2CCCC(Nc3ncc(Cl)c(-c4c[nH]c5ccccc45)n3)C2)cc1` (configuration not stated) returned a % of control of 55%.
`CNC(=O)Nc1ccc(-c2nc(N3CC4CCC(C3)O4)c3cnn(C4CCC5(CC4)OCCO5)c3n2)cc1` showed a % of control in data set [2] of 87%.
`Nc1cnc(N2CCc3cc(S(=O)(=O)Nc4c(F)cc(Cl)cc4F)cc(N4CCCC4=O)c32)nc1` [TP-020n] had a % of control in data set [3] of 89%.
For `CC[C@@H]1[C@H](F)C(=O)N[C@@H]1COc1nccc2cc(C(N)=O)c(OC)cc12` [ZIMLOVISERTIB], the % of inhibition in [4] (at 0.01 µM) is 10.4%; in data set [4] (at 0.04 µM) it was -11.1%; in data set [4] (at 0.2 µM), 2.6%; in data set [4] (at 1 µM), 7.8%; in data set [4] (at 5 µM) it was 18.7%.
In turn, `COc1cc(Nc2nc(C)cc(-c3cnn4nc(OC)ccc34)n2)cc(C(F)(F)F)c1` had a % of control in [5] of 83%.
For `CC(=O)c1cc(-c2ccccc2OCC2CC2)c2ncccn12`, the activity in data set [6] turned out to be 111%.
`C=CC(=O)Nc1cc(-n2c(=O)ccc3cnc4ccc(-c5ccc(NS(C)(=O)=O)cc5)cc4c32)ccc1C`: the % of control in data set [7] (at 1 µM) and in data set [7] (at 10 µM) was 100% in each case.
Turning to `O[C@H]1CC[C@H](Nc2ncc3nc(Nc4c(F)cc(F)cc4F)n([C@H]4CCOC4)c3n2)CC1`, the % of control in data set [8] was determined as 100%.
With `Cc1ccc(-c2ccc3c(ccc4sc5c(c43)NC[C@@H](C)NC5=O)n2)cn1`, the % of inhibition in data set [9] came out at 9%.
In the case of `COCC(=O)NC/C=C/c1ccc2ncnc(Nc3ccc(Oc4ccc(C)nc4)c(C)c3)c2c1` [CP-724714], the % of control in data set [10] was determined as 100%; in data set [11] it was 86%; in data set [12], 100%.
